Legend:
[1] = tested on: wild type, ku80, mre11-2 and ku80mre11-2 mutant seedlings; assay: Assays for sensitivity to bleomycin and methyl methane sulfonate (MMS); type: in vivo, Arabidopsis thaliana; conditions: ku80mre11-2 double mutant, 0.02, 0.05 μg/ml bleomycin or 0.005%, 0.01% MMS; for fresh weight of double mutant plants in comparison with wild type and each of the single mutants: 10-days-old plate-grown plants; for growth phenotype of double mutant compared with each of the single mutants: scored 2 weeks after germination
Procedure: Seeds of wild type, ku80, mre11-2 and ku80mre11-2 mutants were surface-sterilized as described (Weijers et al. 2001) and germinated on solid % MS medium without additions or containing 0.02 μg/ml or 0.05 μg/ml bleomycin (Sigma), 0.005% (v/v), 0.007% or 0.01% MMS (Sigma) and photographed after 2 weeks. After 10 days growth, the fresh weight (compared with controls) was determined by weighing the seedlings in batches of 20 in duplicate. Statistical analyses were performed using Prism version 5 (GraphPad Software Inc.).

[2] = tested on: root tips of Arabidopsis seedlings (wild type, ku80, mre11-2, ku80mre11-2); assay: Cell death assay (propidium iodide staining of root tips); type: in vivo, Arabidopsis thaliana; conditions: 0.05 μg/ml bleomycin for 1 day and 4 days; 4-d-old seedlings; more cell death in ku80mre11-2 double mutant
Procedure: Four days old seedlings on MS-agar plates were transferred to new MS-plates with DNA damaging agents. After one or four days treatments, the seedlings were placed in propidium iodide solution (PI, Sigma-Aldrich, 5 μg/ml in water) for 1 min and rinsed three times with water. Root tips were then transferred to slides in a drop of water and covered with a cover slip for observation under the fluorescence microscope.

| Molecule | fresh weight of double mutant plants in comparison with wild type and each of the single mutants [1] | growth phenotype of double mutant compared with each of the single mutants [1] | cell death in the root meristem (PI staining) [2] |
| --- | --- | --- | --- |
| COS(C)(=O)=O [MMS, Methyl Methane Sulfonate] | dramatically reduced | grew more slowly and developed fewer true leaves | – |
| bleomycin | dramatically reduced | grew more slowly and developed fewer true leaves | caused cell death in the root meristem of both wild type and the mutants |

Source: patent publication US20200325487A1, “A COM[…] FOR REDUCING RANDOM I[…] WHEN TR[…]” (UNIVERSITEIT LEIDEN, priority 2017, published 2020)
